pIC50: −log10 of the molar value. Several values for one entry are separate records, joined by “and”; a condition that tells them apart may be missing. Equal entries are not always repeated.
Experiment: Anticancer human tumor 997537-175-T-J1-PDC patient-derived colon adenocarcinoma cell line growth inhibition [POLQ]
Settings: 997537-175-T-J1-PDC complex spheroid viability, combination with POLQ inhibitors; for viability, T/C: stronger effect = lower value; active = viability on the fitted dose curve at most 10% of control; inactive = the rest
Method: Multicellular complex tumor spheroid response to Polymerase (POL) inhibitors (novobiocin, ART-558, RP6685) in combination with a variety of drugs and investigational agents in selected tumor cell lines
The POL inhibitors (novobiocin, ART-558, and RP6685) were evaluated both individually and in combination with standard of care and investigational anticancer small molecules within a complex spheroid model of solid tumors. . Complex spheroids include a stromal component modeled by human endothelial cells (HUVEC) and fibroblasts modeled by human mesenchymal stem cells (MSCs). The concentration ranges selected for each drug and investigational agent were based upon clinically achievable concentrations if the clinical Cmax of the agent was known.
Compounds. The drugs and investigational agents: novobiocin (NSC847541), ART-558 (NSC835418), RP-6685 (NSC848927), peposertib (NSC802822), ceralasertib (NSC780249), elimusertib (NSC800525), camonsertib (NSC841442), AZD-1390 (NSC803789), olaparib (NSC753686), talazoparib (NSC767125), rucaparib (NSC756644), sotorasib (NSC818433), MRTX-1133 (NSC836407), SN-38 (NSC673596), topotecan (NSC609699), epotoside (NSC141540), doxorubicin (NSC123127), gemcitabine (NSC613327), 5-fluorouracil (NSC19893), paclitaxel (NSC125973), vemurafenib (NSC761431), MSA-2 (NSC828583), SN-011 (NSC837082), adavosertib (NSC754352), prexasertib (NSC758257), carboplatin (NSC241240) and oxaliplatin (NSC266046), were obtained from the National Cancer Institute (NCI) Developmental Therapeutics Program Chemical Repository (21). The FDA-approved anticancer drug set is available from the Developmental Therapeutics Program at https://dtp.cancer.gov/organization/dscb/obtaining/. […] The stock solutions were prepared in dimethyl sulfoxide (DMSO, Sigma-Aldrich, St. Louis, MO, cat. D2650), except for the platinum compounds which were prepared in saline (Quality Biological, Gaithersburg, MD, cat. 114-055-101), at 800-fold the tested concentration and stored at -70 degrees C prior to their use. All drugs and investigational agents were tested over a range starting from a high concentration at or near the clinical Cmax and decreasing in half-log increments. If the clinical Cmax for an agent had not been determined, the highest concentration tested was 10 microM, except for SN-38, which was tested at a high concentration of 1 microM.
Cell Culture. All cells were maintained in an incubator at 37 degrees C and 5% CO2 with 95% humidity. The PDC lines were cultured according to standard operating procedures established by the NCI PDMR (https://pdmr.cancer.gov). Table 3 of the manuscript, lists the cell lines along with the number of the three cell types plated to form the mct-spheroids and media for tumor cell growth. After thawing, all PDC lines, except 997537-175-T-J1-PDC and 415267-285-R-J2-PDC, were cultured in Matrigel-coated flasks prepared with a working solution of 1X Ham's F-12 nutrient mix, without supplementation (Thermo Fisher Scientific, cat. 11765054), 100 U/mL penicillin-streptomycin (Thermo Fisher Scientific, cat. 15140122), and 2.5% Matrigel (Corning Inc., Corning, NY, cat. 354248) for the first three passages. The two PDC lines 997537-175-T-J1-PDC and 415267-285-R-J2-PDC were cultured on uncoated flasks. The 857933-349-R-J2-PDC line was cultured in 6C/Colon 1B media containing advanced DMEM/F-12 (Thermo Fisher Scientific, cat. 12634028), 10 mM HEPES (Thermo Fisher Scientific, cat. 15630080), 1X GlutaMAX supplement (Thermo Fisher Scientific, cat. 35050061), 0.1 mg/mL primocin (InvivoGen, San Diego, CA, cat. ant-pm-2), 10% defined fetal bovine serum, heat inactivated (HyClone Laboratories Inc., Logan, UT, cat. SH30070.03HI), 50% L-WRN conditioned media (ATCC, cat. CRL-3276), 1.25 mM N-Acetyl-L-cysteine (Sigma-Aldrich, cat. A9165), 10 mM nicotinamide (Sigma-Aldrich, cat. N0636), 1X B-27 supplement (Thermo Fisher Scientific, cat. 17504044), 1X N-2 supplement (Thermo Fisher Scientific, cat. […]
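Note: luminescence signal used as a surrogate for viable cells; spheroids exposed to drugs for seven days before readout.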

COc1cccc(OCCCN)c1-c1cc(Nc2cnc(C#N)cn2)n[nH]1
inactive: viability, T/C (compound 0.00316 µM) 96.8% and 107% and 96.1% | viability, T/C (compound 0.01 µM) 106% and 98.4% and 92.4% | viability, T/C (compound 0.0316 µM) 54.1% and 72% and 72.3% | viability, T/C (compound 0.1 µM) 52.4% and 57.1% and 43.6% | viability, T/C (compound 0.316 µM) 24.1% and 36.5% and 25.2% | viability, T/C (compound 1 µM) 25.2% and 27.3% and 13.4%
7.18 and 6.87 and 7.10: pIC50 (curve of compound)

C#Cc1c(F)ccc2cc(O)cc(-c3ncc4c(N5CC6CCC(C5)N6)nc(OCC56CCCN5CC(F)C6)nc4c3F)c12 (stereo not drawn)
inactive: viability, T/C (compound 0.0316 µM) 105% and 99.2% and 101% | viability, T/C (compound 0.1 µM) 106% and 111% and 92.5% | viability, T/C (compound 0.316 µM) 92.2% and 97.5% and 113% | viability, T/C (compound 1 µM) 105% and 93.2% and 113% | viability, T/C (compound 3.16 µM) 110% and 93.3% and 94.4% | viability, T/C (compound 10 µM) 106% and 94.6% and 107%
< 5.00: pIC50 (curve of compound)

Nc1ccn(C2OC(CO)C(O)C2(F)F)c(=O)n1 (stereo not drawn)
< 5.00: pIC50 (curve of compound)
inactive: viability, T/C (compound 0.0316 µM) 104% (2×) and 98.4% | viability, T/C (compound 0.1 µM) 93.9% and 111% and 97.5% | viability, T/C (compound 0.316 µM) 85.7% and 84.1% and 75% | viability, T/C (compound 1 µM) 69.6% and 75.9% and 84.9% | viability, T/C (compound 3.16 µM) 80.9% and 85.4% and 87.5% | viability, T/C (compound 10 µM) 85% and 80% and 70.2%

Nc1ccn(C2OC(CO)C(O)C2(F)F)c(=O)n1 (stereo not drawn) + COC1C(OC(N)=O)C(O)C(Oc2ccc3c(O)c(NC(=O)c4ccc(O)c(CC=C(C)C)c4)c(=O)oc3c2C)OC1(C)C
inactive: viability, T/C (second compound 0.0316 µM, first compound 0.0316 µM) 95.8% | viability, T/C (second compound 0.0316 µM, first compound 0.1 µM) 108% | viability, T/C (second compound 0.0316 µM, first compound 0.316 µM) 79.4% | viability, T/C (second compound 0.0316 µM, first compound 1 µM) 85.2% | viability, T/C (second compound 0.0316 µM, first compound 3.16 µM) 65.8% | viability, T/C (second compound 0.0316 µM, first compound 10 µM) 88.2% | viability, T/C (second compound 0.1 µM, first compound 0.0316 µM) 108% | viability, T/C (second compound 0.1 µM, first compound 0.1 µM) 106% | viability, T/C (second compound 0.1 µM, first compound 0.316 µM) 72.2% | viability, T/C (second compound 0.1 µM, first compound 1 µM) 95% | viability, T/C (second compound 0.1 µM, first compound 3.16 µM) 80.6% | viability, T/C (second compound 0.1 µM, first compound 10 µM) 74.9% | viability, T/C (second compound 0.316 µM, first compound 0.0316 µM) 103% | viability, T/C (second compound 0.316 µM, first compound 0.1 µM) 106% | viability, T/C (second compound 0.316 µM, first compound 0.316 µM) 88.7% | viability, T/C (second compound 0.316 µM, first compound 1 µM) 78.4% | viability, T/C (second compound 0.316 µM, first compound 3.16 µM) 73.9% | viability, T/C (second compound 0.316 µM, first compound 10 µM) 66.8% | viability, T/C (second compound 1 µM, first compound 0.0316 µM) 106% | viability, T/C (second compound 1 µM, first compound 0.1 µM) 89.9% | viability, T/C (second compound 1 µM, first compound 0.316 µM) 100% | viability, T/C (second compound 1 µM, first compound 1 µM) 76.5% | viability, T/C (second compound 1 µM, first compound 3.16 µM) 63.6% | viability, T/C (second compound 1 µM, first compound 10 µM) 70.6% | viability, T/C (second compound 3.16 µM, first compound 0.0316 µM) 97.9% | viability, T/C (second compound 3.16 µM, first compound 0.1 µM) 97% | viability, T/C (second compound 3.16 µM, first compound 0.316 µM) 92.5% | viability, T/C (second compound 3.16 µM, first compound 1 µM) 94.6% | viability, T/C (second compound 3.16 µM, first compound 3.16 µM) 71.7% | viability, T/C (second compound 3.16 µM, first compound 10 µM) 62.7% | viability, T/C (second compound 10 µM, first compound 0.0316 µM) 84.6% | viability, T/C (second compound 10 µM, first compound 0.1 µM) 90.8% | viability, T/C (second compound 10 µM, first compound 0.316 µM) 86.5% | viability, T/C (second compound 10 µM, first compound 1 µM) 63.7% | viability, T/C (second compound 10 µM, first compound 3.16 µM) 71.6% | viability, T/C (second compound 10 µM, first compound 10 µM) 72.3%
< 5.00: pIC50 (curve of first compound, second compound 0.0316 µM) | pIC50 (curve of first compound, second compound 0.1 µM) | pIC50 (curve of first compound, second compound 0.316 µM) | pIC50 (curve of first compound, second compound 1 µM) | pIC50 (curve of first compound, second compound 3.16 µM) | pIC50 (curve of first compound, second compound 10 µM)

From PubChem BioAssay AID1963825 (Molecular Pharmacology Branch, DTP, NCI, 2024)
